The test system of one assay is NIH 3T3 fibroblast cells. As to the kind of experiment: Culture of NIH 3T3 fibroblasts on micropatterned SAMs on gold and palladium. It counts as cell-based. As to conditions: NIH 3T3 cells. The procedure:
To test the ability of SAMs on palladium to support the adhesion and growth of cells in micropatterns, certain features on the substrates were defined using microcontact printing, using techniques similar to those described above. A poly(dimethylsiloxane) (PDMS) stamp that carried microfeatures was inked with 2 mM octadecanethiol (C18) in ethanol, dried under a stream of nitrogen, then brought it into contact with the palladium films for 2 to 10 seconds. Next, the palladium film was immersed in ethanolic solutions containing 2 mM of thiols A, B, or C for up to 50 hours.
NIH 3T3 fibroblast cells were then cultured on these micropatterned substrates. […] In contrast, OEG-terminated SAMs on the same substrate prevented the adhesion of cells during the same times.
In the case of `CCCCCCCCCCCCCCCCCCS` [Compound C18, HS—(CH2)17—CH3], the “adhesion of cells on SAM region” value is given as “supported the adhesion of cells”.

Take `OCCOCCOCCOCCCCCCCCCCCS` [Compound C11EG3, HS—(CH2)11—(O—CH2—CH2)3—OH]: the “adhesion of cells on SAM region” value was “prevented the attachment of cells”.

On to `OCCOCCOCCOCCOCCOCCOCCCCCCCCCCCS` [thiol B, HS(CH2)11(OCH2CH2)6OH], for which the “adhesion of cells on SAM region” value is “prevented the attachment of cells”.

As for `OCCOCCOCCOCCOCCOCCOCCOCCCS` [Compound 2, HS(CH2)3(OCH2CH2)7OH], the “adhesion of cells on SAM region” value is “prevented the attachment of cells”.

The subject of the next assay is BCE cells. The assay is described as follows: Cell motility screening assay: migration of patterned BCE cells out of patterns after voltage pulse. As to conditions: drug added before voltage pulse (−1.2 V, 30 s), fumagillin 100 mM, cycloheximide 1 mg/mL, nocodozole 1 mg/mL. It counts as cell-based, Bovine. As for the experimental part: Time-lapse images were acquired on a Leica inverted microscope equipped with a commercially available on-stage incubation chamber that maintained the temperature at 37° C. and the CO2 concentration at 10% at all times. To prevent the evaporation of water, the culture dish was covered with a thin layer of mineral oil (Sigma-Aldrich, St. Louis, Mo.). Phase-contrast images were acquired by a Hamamatsu video camera using METAMORPH® software (Universal Imaging Inc., Downingtown, Pa.). Fluorescent images were acquired through a charge-coupled device from Hamamatsu (ORCA-ER). Quantification of cell shapes for the analysis of the fractional coverage of the surface was performed with an image analysis routine in Metamorph. Briefly, the cells were outlined and the total areas that the cells occupied were calculated. The calculated area was then divided by the total area of the field of view in the micrograph to obtain the normalized fractional coverage by cells. The LIVE/DEAD® assay kit was obtained from Molecular Probes (Eugene, Oreg.).
BCE cells were patterned on a gold-coated substrate coated with C18 and C11EG3 thiols in discrete patterned regions, similar to those shown in FIG. 1 by techniques similar to those described above in Example 1. Additionally, serum-containing media was used in some instances. […]
Regarding `CO[C@@H]1[C@H](OC(=O)/C=C/C=C/C=C/C=C/C(=O)O)CC[C@]2(CO2)[C@H]1[C@@]1(C)O[C@@H]1CC=C(C)C` [Fumagillin, fumagillin], the “effect on cell migration out of the patterns” value is “reduce the rates of cell migration”.

Consider `C[C@@H]1C[C@@H]([C@H](O)CC2CC(=O)NC(=O)C2)C(=O)[C@@H](C)C1` [cycloheximide], for which the “effect on cell migration out of the patterns” value was “reduce the rates of cell migration”.
